Measurements as given in article PMC6150365, “Simultaneous Determination of Seven Components in Rat Plasma by the UPLC-MS/MS Method and Application of Pharmacokinetic Studies to SimiaoYong’an Decoction” (Molecules : A Journal of Synthetic Chemistry and Natural …, 2017).

Experiment: Pharmacokinetic study in rats after oral administration of SYD extract and its single and combined TCM extracts (UPLC-MS/MS of plasma)
Details: for MRT last: MRT(0–t); for MRT inf: MRT(0–∞); for half-life: t1/2, rat plasma
[1] = male, Sprague-Dawley, rat, plasma, po, 0.68 g/kg, rat plasma, oral GU extract 0.68 g/kg, n = 6
[2] = male, Sprague-Dawley, rat, plasma, po, 2.14 g·kg^−1 (extract), rat plasma, oral LJ + GU extract, n = 6
[3] = male, Sprague-Dawley, rat, plasma, po, 2.43 g/kg, rat plasma, oral AS + GU extract 2.43 g/kg, n = 6
[4] = male, Sprague-Dawley, rat, plasma, po, 3.38 g/kg extract (6.67 g/kg as herbs), rat plasma, oral SN + GU extract, n = 6
[5] = male, Sprague-Dawley, rat, plasma, po, 4.01 g·kg^−1 (extract), rat plasma, oral LJ + AS + GU extract, n = 6
[6] = male, Sprague-Dawley, rat, plasma, po, 4.73 g/kg, rat plasma, oral LJ + SN + GU extract 4.73 g/kg, n = 6
[7] = male, Sprague-Dawley, rat, plasma, po, 8.25 g/kg, rat plasma, oral SYD extract 8.25 g/kg, n = 6

Protocol: Pieces of LJ, SN, AS and GU were weighed according to the proportion of 3:3:2:1 with appropriate amounts. The mixed pieces were crushed and decocted two times (60 min each time) with water (1:10 w/v) after being soaked for 60 min. The decoctions were then combined and condensed to the concentration of 0.5 g/mL, after which 95% ethanol was slowly added to the concentrate until a final ethanol concentration of 70% was reached. The SYD solution was set at room temperature overnight and then was filtered. The solvent was recovered, and the residue was dried under reduced pressure. A certain amount of the water extract of SYD was weighed and then dissolved with purified water for intragastric (oral) administration solution. The single herbs and different combination groups such as LJ, SN, AS, GU, LJ + SN, LJ + AS, LJ + GU, SN + AS, SN + GU, AS + GU, LJ + SN + AS, LJ + SN + GU, LJ + AS + GU and SN + AS + GU were prepared according to the procedure of SYD.
Male Sprague-Dawley (SD) rats (body weight 250 ± 10 g) were supplied by the SPF (Beijing) Biotechnology Co., Ltd. (Certificate No.: SCXK 2016-0002, Beijing, China). The animals were maintained in controlled conditions (temperature 20–25 °C, relative humidity 55–60% and 12-h light/12-h dark cycle) with free access to standard laboratory food and water for seven days of acclimation and then fasted for 12 h before each experiment but allowed to drink freely during this time.
Ninety male SD rats were randomly separated into 15 groups and administered a dosage of extract via gastric gavage once per day; detailed information about the oral daily dose of SYD extract and the corresponding single and combined TCMs (LJ, SN, AS, GU, LJ + SN, LJ + AS, LJ + GU, SN + AS, SN + GU, AS + GU, LJ + SN + AS, LJ + SN + GU, LJ + AS + GU, SN + AS + GU and SYD) is listed in Table 4.
Each plasma sample (200 μL) with 50 μL IS solution added was spiked into 100 μL 1% formic acid distilled water solution and then vortexed for 1 min. Protein was precipitated by adding 600 μL of methanol to the mixture. After being vortexed and sonicated, the samples were centrifuged at 25,000 r/min, 4 °C for 10 min. The supernatant of each sample was transferred to a new 2-mL centrifuge tube and evaporated to dryness by N2 at 40 °C. Finally, the residue was dissolved in 100 μL methanol–water (1:1, v/v), followed by centrifugation at 30,000 r/min, 4 °C for 10 min, and 10-μL supernatant aliquots were injected into the UPLC-MS/MS system for analysis.
The SYD was decomposed into 15 groups of compatibility combinations (LJ, SN, AS, GU, LJ + SN, LJ + AS, LJ + GU, SN + AS, SN + GU, AS + GU, LJ + SN + AS, LJ + SN + GU, LJ + AS + GU, SN + AS + GU and SYD). The 15 combinations were weighed according to the proportion of 3:3:2:1 with appropriate amounts and prepared by the method described in “Section 3.2”. Six male SD rats (body weight 250 ± 10 g) of each compatibility group were used in the pharmacokinetic study. After 12-h fast, rats of the different groups were orally administered the respective extract dissolved in saline (Table 4). Venous blood (0.45 mL) was obtained from the orbit vein and collected in heparin-pretreated polypropylene centrifuge tubes at 0.083 h, 0.17 h, 0.25 h, 0.50 h, 0.75 h, 1.0 h, 1.5 h, 2.0 h, 3.0 h, 4.0 h, 6.0 h, 8.0, 12 h and 24 h post-dose. The plasma was separated by centrifugation at 8000 r/min for 10 min and then stored at −20 °C until analysis. The amount of each analyte in the plasma was estimated by UPLC-MS/MS analysis as described in Section 3.5.
Non-compartmental methods using Phoenix WinNonlin 7.0 software provided by the Beijing University of Chinese Medicine were used to analyze plasma concentration versus time profiles and to estimate the following pharmacokinetic parameters: terminal elimination half-lives (t1/2), area under the plasma concentration versus time curve from zero to last sampling time (AUC), and the mean residence time (MRT).

Structure (SMILES): O=C1C[C@@H](c2ccc(O[C@@H]3O[C@H](CO)[C@@H](O)[C@H](O)[C@H]3O)cc2)Oc2cc(O)ccc21 [Liquiritin, liquiritin]
- AUC(0-t) [1]: 0.19 µg·h/mL
- AUC(0-inf) (male, Sprague-Dawley, rat, plasma, po, 0.68 g/kg, AUC(0–∞), rat plasma, oral GU extract 0.68 g/kg, n = 6): 0.19 µg·h/mL
- Cmax (male, Sprague-Dawley, rat, plasma, po, 0.68 g/kg, Cmax, rat plasma, oral GU extract 0.68 g/kg, n = 6): 0.27 µg/mL
- MRT last [1]: 1.16 ± 0.01 h
- MRT inf [1]: 1.19 ± 0.01 h
- Tmax (male, Sprague-Dawley, rat, plasma, po, 0.68 g/kg, Tmax, rat plasma, oral GU extract 0.68 g/kg, n = 6): 0.08 h
- half-life (male, Sprague-Dawley, rat, plasma, po, 0.68 g/kg, oral GU extract 0.68 g/kg, n = 6): 4.41 ± 0.59 h
- AUC(0-inf) (male, Sprague-Dawley, rat, plasma, po, 2.14 g·kg^−1 (extract), AUC(0–∞), rat plasma, oral LJ + GU extract, n = 6): 0.2 ± 0.06 µg·h/mL
- MRT last [2]: 2.53 ± 0.56 h
- MRT inf [2]: 13.5 ± 11 h
- Tmax (male, Sprague-Dawley, rat, plasma, po, 2.14 g·kg^−1 (extract), Tmax, rat plasma, oral LJ + GU extract, n = 6): 0.56 ± 0.56 h
- half-life (male, Sprague-Dawley, rat, plasma, po, 2.14 g·kg^−1 (extract), oral LJ + GU extract, n = 6): 12.2 ± 7.3 h
- AUC(0-t) (male, Sprague-Dawley, rat, plasma, po, 2.14 g·kg^−1 extract, rat plasma, oral LJ + GU extract, n = 6): 0.18 ± 0.06 µg·h/mL
- AUC(0-t) [3]: 0.22 ± 0.08 µg·h/mL
- AUC(0-inf) (male, Sprague-Dawley, rat, plasma, po, 2.43 g/kg, AUC(0–∞), rat plasma, oral AS + GU extract 2.43 g/kg, n = 6): 0.24 ± 0.08 µg·h/mL
- MRT last [3]: 2.3 ± 0.63 h
- MRT inf [3]: 11.1 ± 8.58 h
- Tmax (male, Sprague-Dawley, rat, plasma, po, 2.43 g/kg, Tmax, rat plasma, oral AS + GU extract 2.43 g/kg, n = 6): 0.6 ± 0.5 h
- half-life (male, Sprague-Dawley, rat, plasma, po, 2.43 g/kg, oral AS + GU extract 2.43 g/kg, n = 6): 9.28 ± 5.92 h
- MRT last [4]: 2.48 ± 0.46 h
- MRT inf [4]: 12.4 ± 9.87 h
- Tmax (male, Sprague-Dawley, rat, plasma, po, 3.38 g/kg extract (6.67 g/kg as herbs), Tmax, rat plasma, oral SN + GU extract, n = 6): 0.42 ± 0.53 h
- half-life (male, Sprague-Dawley, rat, plasma, po, 3.38 g/kg extract (6.67 g/kg as herbs), oral SN + GU extract, n = 6): 7.81 ± 5.31 h
- AUC(0-t) (male, Sprague-Dawley, rat, plasma, po, 3.38 g·kg^−1 (extract), rat plasma, oral SN + GU extract, n = 6): 0.18 ± 0.05 µg·h/mL
- AUC(0-inf) (male, Sprague-Dawley, rat, plasma, po, 3.38 g·kg^−1 (extract), AUC(0–∞), rat plasma, oral SN + GU extract, n = 6): 0.21 ± 0.05 µg·h/mL
- Cmax (male, Sprague-Dawley, rat, plasma, po, 3.38 g·kg^−1 extract, Cmax, rat plasma, oral SN + GU extract, n = 6): 0.15 ± 0.07 µg/mL
- AUC(0-t) [5]: 0.22 ± 0.13 µg·h/mL
- AUC(0-inf) (male, Sprague-Dawley, rat, plasma, po, 4.01 g·kg^−1 (extract), AUC(0–∞), rat plasma, oral LJ + AS + GU extract, n = 6): 0.26 ± 0.14 µg·h/mL
- Cmax (male, Sprague-Dawley, rat, plasma, po, 4.01 g·kg^−1 (extract), Cmax, rat plasma, oral LJ + AS + GU extract, n = 6): 0.21 ± 0.17 µg/mL
- MRT last [5]: 2.41 ± 0.63 h
- MRT inf [5]: 16 ± 11.8 h
- Tmax (male, Sprague-Dawley, rat, plasma, po, 4.01 g·kg^−1 (extract), Tmax, rat plasma, oral LJ + AS + GU extract, n = 6): 0.79 ± 0.29 h
- half-life (male, Sprague-Dawley, rat, plasma, po, 4.01 g·kg^−1 (extract), oral LJ + AS + GU extract, n = 6): 13.7 ± 4.69 h
- AUC(0-t) [6]: 0.23 ± 0.16 µg·h/mL
- AUC(0-inf) (male, Sprague-Dawley, rat, plasma, po, 4.73 g/kg, AUC(0–∞), rat plasma, oral LJ + SN + GU extract 4.73 g/kg, n = 6): 0.26 ± 0.17 µg·h/mL
- MRT last [6]: 2.5 ± 0.67 h
- MRT inf [6]: 16.3 ± 12.9 h
- Tmax (male, Sprague-Dawley, rat, plasma, po, 4.73 g/kg, Tmax, rat plasma, oral LJ + SN + GU extract 4.73 g/kg, n = 6): 0.88 ± 0.31 h
- half-life (male, Sprague-Dawley, rat, plasma, po, 4.73 g/kg, oral LJ + SN + GU extract 4.73 g/kg, n = 6): 13.4 ± 5.15 h
- AUC(0-inf) (male, Sprague-Dawley, rat, plasma, po, 8.25 g/kg): 0.34 ± 0.21 µg·h/mL
- AUC(0-t) [7]: 0.29 ± 0.21 µg·h/mL
- Cmax (male, Sprague-Dawley, rat, plasma, po, 8.25 g/kg, Cmax, rat plasma, oral SYD extract 8.25 g/kg, n = 6): 0.21 ± 0.17 µg/mL
- MRT last [7]: 2.89 ± 0.92 h
- MRT inf [7]: 11.3 ± 7.16 h
- Tmax (male, Sprague-Dawley, rat, plasma, po, 8.25 g/kg, Tmax, rat plasma, oral SYD extract 8.25 g/kg, n = 6): 0.88 ± 0.31 h
- half-life (male, Sprague-Dawley, rat, plasma, po, 8.25 g/kg, oral SYD extract 8.25 g/kg, n = 6): 13.4 ± 5.59 h
- half-life (male, Sprague-Dawley, rat, plasma, po, […], oral SN + AS + GU extract […], n = 6): 11.6 ± 5.01 h
- Cmax (rat plasma, oral AS + GU extract 2.43 g/kg, n = 6): 0.20 ± 0.13 µg/mL
- Cmax (rat plasma, oral LJ + GU extract, n = 6): 0.14 ± 0.07 µg/mL
- Tmax (rat plasma, oral SN + AS + GU extract […], n = 6): 1.00 ± 0.27 h
